Laboratory results: patent publication US8383094B2, “Hepatitis C virus inhibitors” (Bristol-Myers Squibb Company, priority 2008, dated 2013)
Read-outs that look alike come from different tables or passages of the source.

Test system: HCV 1b genotype
Assay: HCV Replicon assay (HCV-neo replicon cells, wild-type)
Format: cell-based
Settings: HCV 1b genotype replicon, read-out: 1b EC50 (in μM or range)
[1] = Hepatitis C virus, range class A-D

Structure (SMILES)	EC50 [1] [µM]	further results
CN(C)[C@@H](C(=O)N1CCC[C@H]1C(=O)Nc1ccc(C#Cc2ccc(NC(=O)[C@@H]3CCCN3C(=O)[C@@H](c3ccc(F)cc3)N(C)C)cc2)cc1)c1ccc(F)cc1 [Example D36, (2S,2′S)-N,N′-(1,2-ethynediyldi-4,1-phenylene)bis(1-((2R)-2-(dimethylamino)-2-(4-fluorophenyl)acetyl)-2-pyrrolidinecarboxamide)]	< 0.00457	
O=C(Nc1ccc(C#Cc2ccc(NC(=O)[C@@H]3CCCN3C(=O)Cc3ccccc3)cc2)cc1)[C@@H]1CCCN1C(=O)Cc1ccccc1 [Example D2, (2S,2′S)-N,N′-(1,2-ethynediyldi-4,1-phenylene)bis(1-(phenylacetyl)-2-pyrrolidinecarboxamide)]	< 0.00457	
CC(C)C(=O)N[C@@H](C(=O)N1CCC[C@H]1C(=O)Nc1ccc(C#Cc2ccc(NC(=O)[C@@H]3CCCN3C(=O)[C@H](NC(=O)C(C)C)c3ccccc3)cc2)cc1)c1ccccc1 [VN25, (2S,2′S)-N,N′-(1,2-ethynediyldi-4,1-phenylene)bis(1-((2R)-2-(isobutyrylamino)-2-phenylacetyl)-2-pyrrolidinecarboxamide)]	< 0.00457	
CC(=O)N1CCN(C(C(=O)N2CCC[C@H]2C(=O)Nc2ccc(C#Cc3ccc(NC(=O)[C@@H]4CCCN4C(=O)C(c4ccccc4)N4CCN(C(C)=O)CC4)cc3)cc2)c2ccccc2)CC1 (stereo partly drawn) [VN48, (2S,2′S)-N,N′-(1,2-ethynediyldi-4,1-phenylene)bis(1-((4-acetyl-1-piperazinyl)(phenyl)acetyl)-2-pyrrolidinecarboxamide)]	< 0.00457	
CN(C)c1ccc(C#Cc2ccc(NC(=O)[C@@H]3CCCN3C(=O)[C@@H](c3ccccc3)N(C)C)cc2)cc1 [Example D60, (S)-1-((R)-2-(dimethylamino)-2-phenylacetyl)-N-(4-((4-(dimethylamino)phenyl)ethynyl)phenyl)pyrrolidine-2-carboxamide]	0.1 to 0.999	
CN1C[C@@H]2C[C@H]1CN2C(C(=O)N1CCC[C@H]1C(=O)Nc1ccc(C#Cc2ccc(NC(=O)[C@@H]3CCCN3C(=O)C(c3ccccc3)N3C[C@@H]4C[C@H]3CN4C)cc2)cc1)c1ccccc1 (stereo partly drawn) [VN19, (2S,2′S)-N,N′-(1,2-ethynediyldi-4,1-phenylene)bis(1-(((1S,4S)-5-methyl-2,5-diazabicyclo[2.2.1]hept-2-yl)(phenyl)acetyl)-2-pyrrolidinecarboxamide)]		EC50: 0.0052 µM
N#Cc1cc2ccccc2c(C(=O)N2CCC[C@H]2C(=O)Nc2ccc(C#Cc3ccc(NC(=O)[C@@H]4CCCN4C(=O)c4nc(C#N)cc5ccccc45)cc3)cc2)n1 [Example D32, (2S,2′S)-N,N′-(1,2-ethynediyldi-4,1-phenylene)bis(1-((3-cyano-1-isoquinolinyl)carbonyl)-2-pyrrolidinecarboxamide)]	0.00457 to 0.099	
O=C(Nc1ccc(C#Cc2ccc(NC(=O)[C@@H]3CCCN3C(=O)Cc3ccccc3)nc2)cn1)[C@@H]1CCCN1C(=O)Cc1ccccc1 [Example D48, (2S,2′S)-N,N′-(1,2-ethynediyldi-5,2-pyridinediyl)bis(1-(phenylacetyl)-2-pyrrolidinecarboxamide)]	< 0.00457	
CCOc1cccc2c(C(=O)N3CCC[C@H]3C(=O)Nc3ccc(C#Cc4ccc(NC(=O)[C@@H]5CCCN5C(=O)c5nc(Cl)cc6c(OCC)cccc56)cc4)cc3)nc(Cl)cc12 [Example D34, (2S,2′S)-N,N′-(1,2-ethynediyldi-4,1-phenylene)bis(1-((3-chloro-5-ethoxy-1-isoquinolinyl)carbonyl)-2-pyrrolidinecarboxamide)]	0.00457 to 0.099	
O=C(Nc1ccc(C#Cc2ccc(NC(=O)C3CC3)cc2)cc1)C1CC1 [Example D3, N,N′-(4,4′-(Ethyne-1,2-diyl)bis(4,1-phenylene))dicyclopropanecarboxamide]	0.00457 to 0.099	
CCc1sc(Cl)nc1C(=O)N1CCC[C@H]1C(=O)Nc1ccc(C#Cc2ccc(NC(=O)[C@@H]3CCCN3C(=O)c3nc(Cl)sc3CC)cc2)cc1 [Example D36.1, (2S,2′S)-N,N′-(4,4′-(ethyne-1,2-diyl)bis(4,1-phenylene))bis(1-(2-chloro-5-ethylthiazole-4-carbonyl)pyrrolidine-2-carboxamide)]		EC50 (range class A-D): 0.1 to 0.999 µM
CN1Cc2ccccc2C1C(=O)N1CCC[C@H]1C(=O)Nc1ccc(C#Cc2ccc(NC(=O)[C@@H]3CCCN3C(=O)C3c4ccccc4CN3C)cc2)cc1 (stereo partly drawn) [VN40, (2S,2′S)-N,N′-(1,2-ethynediyldi-4,1-phenylene)bis(1-((2-methyl-2,3-dihydro-1H-isoindol-1-yl)carbonyl)-2-pyrrolidinecarboxamide)]		EC50 (range class A-D): 0.00457 to 0.099 µM
CC(C)(C)OC(=O)N[C@@H](C(=O)N1CCC[C@H]1C(=O)Nc1ccc(C#Cc2ccc(NC(=O)[C@@H]3CCCN3C(=O)[C@H](NC(=O)OC(C)(C)C)c3ccccc3)cc2)cc1)c1ccccc1 [VN23, Step a, di-tert-butyl(1,2-ethynediylbis(4,1-phenylenecarbamoyl(2S)-2,1-pyrrolidinediyl((1R)-2-oxo-1-phenyl-2,1-ethanediyl)))biscarbamate]	< 0.00457	
O=C1CN(C(C(=O)N2CCC[C@H]2C(=O)Nc2ccc(C#Cc3ccc(NC(=O)[C@@H]4CCCN4C(=O)C(c4ccccc4)N4CCNC(=O)C4)cc3)cc2)c2ccccc2)CCN1 (single isomer, unassigned) [VN33.5]		EC50 (range class A-D): 0.1 to 0.999 µM
COc1ccc2c(C(=O)N3CCC[C@H]3C(=O)Nc3ccc(C#Cc4ccc(NC(=O)[C@@H]5CCCN5C(=O)c5nc(Cl)cc6cc(OC)ccc56)cc4)cc3)nc(Cl)cc2c1 [Example D35, (2S,2′S)-N,N′-(1,2-ethynediyldi-4,1-phenylene)bis(1-((3-chloro-6-methoxy-1-isoquinolinyl)carbonyl)-2-pyrrolidinecarboxamide)]		EC50 (Hepatitis C virus): 0.094 µM
CCC(O)(C(=O)N1CCC[C@H]1C(=O)Nc1ccc(C#Cc2ccc(NC(=O)[C@@H]3CCCN3C(=O)C(O)(CC)c3ccccc3)cc2)cc1)c1ccccc1 (stereo partly drawn) [VN10, (2S,2′S)-N,N′-(1,2-ethynediyldi-4,1-phenylene)bis(1-(2-hydroxy-2-phenylbutanoyl)-2-pyrrolidinecarboxamide)]	< 0.00457	
C=Cc1cccnc1C(=O)N1CCC[C@H]1C(=O)Nc1ccc(C#Cc2ccc(NC(=O)[C@@H]3CCCN3C(=O)c3ncccc3C=C)cc2)cc1 [Example D36.3, (2S,2′S)-N,N′-(4,4′-(ethyne-1,2-diyl)bis(4,1-phenylene))bis(1-(3-vinylpicolinoyl)pyrrolidine-2-carboxamide)]		EC50 (range class A-D): 0.1 to 0.999 µM
O=C(CC1CC1)Nc1ccc(C#Cc2ccc(NC(=O)[C@@H]3CCCN3C(=O)Cc3ccccc3)cc2)cc1 [Example D16, N-(4-((4-((cyclopropylacetyl)amino)phenyl)ethynyl)phenyl)-1-(phenylacetyl)-L-prolinamide]	0.1 to 0.999	
CC(=O)N(C)C(C(=O)N1CCC[C@H]1C(=O)Nc1ccc(C#Cc2ccc(NC(=O)[C@@H]3CCCN3C(=O)C(c3ccccc3)N(C)C(C)=O)cc2)cc1)c1ccccc1 (stereo partly drawn) [VN46, (2S,2′S)-N,N′-(1,2-ethynediyldi-4,1-phenylene)bis(1-((acetyl(methyl)amino)(phenyl)acetyl)-2-pyrrolidinecarboxamide)]	0.1 to 0.999	
O=C(Nc1ccc(C#Cc2ccc(NC(=O)[C@@H]3CCCN3C(=O)C(F)c3ccccc3)cc2)cc1)[C@@H]1CCCN1C(=O)C(F)c1ccccc1 (stereo partly drawn) [VN8, (2S,2′S)-N,N′-(1,2-ethynediyldi-4,1-phenylene)bis(1-(fluoro(phenyl)acetyl)-2-pyrrolidinecarboxamide)]	< 0.00457	
O=C(Nc1ccc(C#Cc2ccc(NC(=O)[C@@H]3CCCN3C(=O)c3nc(Cl)cc4ccccc34)cc2)cc1)[C@@H]1CCCN1C(=O)CC1CC1 [Example D38, (2S)-1-((3-Chloro-1-isoquinolinyl)carbonyl)-N-(4-((4-((((2S)-1-(cyclopropylacetyl)-2-pyrrolidinyl)carbonyl)amino)phenyl)ethynyl)phenyl)-2-pyrrolidinecarboxamide]	0.00457 to 0.099	
CN(C)[C@H](Cc1ccccc1)C(=O)N1CCC[C@H]1C(=O)Nc1ccc(C#Cc2ccc(NC(=O)[C@@H]3CCCN3C(=O)[C@@H](Cc3ccccc3)N(C)C)cc2)cc1 [VN28, (2S,2′S)-N,N′-(1,2-ethynediyldi-4,1-phenylene)bis(1-((2R)-2-(dimethylamino)-3-phenylpropanoyl)-2-pyrrolidinecarboxamide)]	< 0.00457	
CN(C)[C@@H](Cc1ccccc1)C(=O)N1CCC[C@H]1C(=O)Nc1ccc(C#Cc2ccc(NC(=O)[C@@H]3CCCN3C(=O)[C@H](Cc3ccccc3)N(C)C)cc2)cc1 [VN29, (2S,2′S)-N,N′-(1,2-ethynediyldi-4,1-phenylene)bis(1-((2S)-2-(dimethylamino)-3-phenylpropanoyl)-2-pyrrolidinecarboxamide)]	0.1 to 0.999	
C[C@@H](C(=O)N1CCC[C@H]1C(=O)Nc1ccc(C#Cc2ccc(NC(=O)[C@@H]3CCCN3C(=O)[C@H](C)c3ccccc3)nc2)cn1)c1ccccc1 [Example D50, (2S,2′S)-N,N′-(1,2-ethynediyldi-5,2-pyridinediyl)bis(1-((2R)-2-phenylpropanoyl)-2-pyrrolidinecarboxamide)]	< 0.00457	
O=C(Nc1ccc(C#Cc2ccc(NC(=O)[C@@H]3CCCN3C(=O)OCc3ccccc3)cc2)cc1)[C@H]1CCCO1 [Example D21, Benzyl (2S)-2-((4-((4-(((2R)-tetrahydro-2-furanylcarbonyl)amino)phenyl)ethynyl)phenyl)carbamoyl)-1-pyrrolidinecarboxylate]	0.1 to 0.999	
O=C(Nc1ccc(C#Cc2ccc(NC(=O)[C@@H]3CCCN3C(=O)[C@H]3CCCO3)cc2)cc1)C1CC1 [Example D6, N-(4-((4-((cyclopropylcarbonyl)amino)phenyl)ethynyl)phenyl)-1-((2R)-tetrahydro-2-furanylcarbonyl)-L-prolinamide]	0.1 to 0.999	
CC(=O)N1CCC[C@H]1C(=O)Nc1ccc(C#Cc2ccc(NC(=O)[C@@H]3CCCN3C(=O)c3nccc4ccccc34)nc2)cc1 [Example D56, (2S)-1-Acetyl-N-(4-((6-((((2S)-1-(1-isoquinolinylcarbonyl)-2-pyrrolidinyl)carbonyl)amino)-3-pyridinyl)ethynyl)phenyl)-2-pyrrolidinecarboxamide]		EC50 (Hepatitis C virus): 2.09 µM
